Columns and labels:
Assay type in all cases: cell-based
OVCAR8 Thal-R cells = experiment: CellTiter-Glo cell viability, OVCAR8 Thal-R cells; details: OVCAR8, escalating doses, 5 days
Description: (§1) Chronic exposure of OVCAR8 cells to CDK9 PROTAC (Thal SNS 032) sensitized cells to RAD001 or GSK1904529A. […] Moreover, these studies show both BET PROTACs and CDK9 PROTACs elicit a similar dependency on MTOR signaling to promote drug resistance. […] OVCAR8 cells were treated with escalating doses of Thal SNS 032 and CDK9 protein levels were determined by Western blot (FIG. 15A). […] (FIG. 15B). […] Thal-R inhibitor treated cell viabilities were normalized to DMSO treated Thal-R cells. Combination therapies involving GSK529A or RAD001 and Thal SNS 032 improved growth repression of OVCAR8 cells. OVCAR8 cells were treated with 100 nM Thal SNS 032, escalating doses of GSK529A or RAD001, or the combination of Thal SNS 032 and kinase inhibitors, for 5 days and cell viability was assessed by CellTiter-Glo (FIGS. 15F and 15G).

[1] = tested on: BET proteins (BRD2, BRD3, BRD4); experiment: Western blot of BET protein levels, OVCAR8 parental cells
[2] = tested on: KURAMOCHI, COV362 and OVCAR5 MZ1-R cells; experiment: CellTiter-Glo cell viability, KURAMOCHI, COV362 and OVCAR5 MZ1-R cells; details: COV362 and OVCAR5, escalating doses, 5 days
BET proteins, FOSL1, MYC = experiment: Western blot of BET proteins and BRD4 targets, JQ1-R cells
[3] = tested on: INSR and downstream MTOR, AKT and MAPK signaling; experiment: Kinase signaling in BBD-R cells (MIB-MS, phospho-blot); details: for phosphorylation of P70S6K (T359): BBD-R cells (MZ1-R, ARV-R), 4 hours
Description: Reduced MIB-binding of kinases involved in cell cycle (WEE1, CHEK1, CDK2, CDK6 and PLK1), as well as kinases required for translation (EIF2AK1, EIF2AK2, and EIF2AK4) were also observed following GSK529A treatment. […] Enrichment maps of pathways repressed by INSR inhibition generated from MIB-MS profiles of OVCAR8 cells treated with GSK529A (1 μM) treatment for 48 hours. Statistical differences in protein log 2 LFQ z-scores comparing GSK529A to control treated MZ1-R cells was determined by paired T-Test Benjamini- Hochberg adjusted p values at FDR of <0.05 using Perseus Software. […] Enrichment maps were generated in Cytoscape using the Enrichment Map app v2.2.1. (data not shown).

[4] = tested on: OVCAR8 parental, MZ1-R or ARV-R; experiment: 14-day colony formation assay, crystal violet staining; details: ARV-R or MZ1-R vs parental OVCAR8, 14-day
Description: Parental, JQ1-R or MZ1-R OVCAR8 cells were treated with escalating doses of MK2206 for 5 days and cell viability assessed by CellTiter-Glo. MZ1-R or JQ1-R inhibitor treated cell viabilities normalized to DMSO treated JQ1-R or MZ1-R cells, respectfully (FIG. 11J). […] Parental, JQ1-R or MZ1-R OVCAR8 cells were treated with escalating doses of LP-935509 for 5 days and cell viability assessed by CellTiter-Glo. MZ1-R or JQ1-R inhibitor treated cell viabilities normalized to DMSO treated JQ1-R or MZ1-R cells, respectfully (FIG. 11K). […] Long-term 14-day colony formation assay of OVCAR8 parental, MZ1-R or ARV-R were treated with escalating doses of GSK529A or DMSO. Colony formation was assessed by crystal violet staining (FIG. 11L).

OVCAR8 ARV-R cells = experiment: CellTiter-Glo cell viability, OVCAR8 ARV-R cells; details: escalating doses, 5 days
OVCAR8 MZ1-R cells [5] = experiment: Apoptosis by Western blot, OVCAR8 MZ1-R cells
[6] = tested on: BET proteins (BRD2, BRD3, BRD4); experiment: Western blot of BET proteins and BRD4 targets, OVCAR8 MZ1-R cells; details: for BET protein levels: Western blot
BRD2, BRD3 or BRD4 RNA = experiment: qRT-PCR of BRD RNA levels, OVCAR8 MZ1-R cells; details: 1 μM, 48 hours
OVCAR8 MZ1-R cells [7] = experiment: CellTiter-Glo cell viability, OVCAR8 MZ1-R cells; details: escalating doses, 5 days; for sensitivity of MZ1-R cells relative to JQ1-R cells or parental cells: OVCAR8, inhibitor screen
CDK9 [8] = molecular target: T1, CDK9 (Homo sapiens, UniProt P50750); experiment: Western blot of CDK9 protein levels, OVCAR8 Thal-R cells; details: Thal 500 nM or 2 μM kinase inhibitor, 4 hours
T1 construct: OVCAR8 cells were treated with escalating doses of Thal SNS 032 and CDK9 protein levels were determined by Western blot; endogenous in cells; host or cells: OVCAR8 parental and Thal-R cells
Description: OVCAR8 cells were treated with escalating doses of Thal SNS 032 and CDK9 protein levels were determined by Western blot (FIG. 15A). […] Thal-R inhibitor treated cell viabilities were normalized to DMSO treated Thal-R cells. […] OVCAR8 cells were treated with 100 nM Thal SNS 032, escalating doses of GSK529A or RAD001, or the combination of Thal SNS 032 and kinase inhibitors, for 5 days and cell viability was assessed by CellTiter-Glo (FIGS. 15F and 15G).

[9] = tested on: BET proteins (BRD2, BRD4); experiment: Western blot of BET proteins, KURAMOCHI, COV362 and OVCAR5 MZ1-R cells
OVCAR5 JQ1-R cells = experiment: Growth curves, OVCAR5 JQ1-R cells
KURAMOCHI cells = experiment: Combination cell viability, KURAMOCHI cells, CellTiter-Glo; details: 100 nM, 5 days
Source text: The proposed model of the protection of BRD4 from PROTAC-degradation by MTOR signaling in ovarian cancer cells is shown in FIG. 7J. PROTAC-mediated degradation of BRD4 induces RTK signaling resulting in increased MTOR signaling which prevents the degradation of BRD4 in cells resistant to BET PROTACs.

[10] = tested on: BET proteins (BRD2, BRD3, BRD4); experiment: Western blot of BET proteins, OVCAR8 ARV-R cells
DLD-1 cells [11] = experiment: Spheroid assay, DLD-1 cells; details: 2 μM RAD001, 1 nM dBET6
Description: Data were analyzed as % cell viability of DMSO control, presented as means of 3 independent assays.

CDK9 [12] = molecular target: T1, CDK9; experiment: Western blot of CDK9 protein levels, OVCAR8 cells; details: escalating doses
Description: as §1

DLD-1 cells [13] = experiment: Cell-Titer Glo cell viability and drug synergy, DLD-1 cells
Description: Blockade of MTORC1 signaling sensitizes cancer cells resistant to BET-PROTACs. […] Data were analyzed as % cell viability of DMSO control, presented as means of 3 independent assays.

T1 sequence (P50750 whole entry): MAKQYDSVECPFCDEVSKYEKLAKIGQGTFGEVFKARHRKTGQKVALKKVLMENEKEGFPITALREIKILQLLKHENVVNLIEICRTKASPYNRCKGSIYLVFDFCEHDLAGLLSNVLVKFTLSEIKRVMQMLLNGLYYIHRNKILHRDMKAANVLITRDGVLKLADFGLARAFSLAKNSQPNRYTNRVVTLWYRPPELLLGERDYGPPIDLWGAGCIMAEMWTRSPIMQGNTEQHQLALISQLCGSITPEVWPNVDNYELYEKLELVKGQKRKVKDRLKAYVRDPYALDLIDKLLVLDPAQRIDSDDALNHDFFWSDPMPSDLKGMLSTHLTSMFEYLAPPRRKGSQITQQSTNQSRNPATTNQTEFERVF
T1 sequence (O60563 whole entry partner): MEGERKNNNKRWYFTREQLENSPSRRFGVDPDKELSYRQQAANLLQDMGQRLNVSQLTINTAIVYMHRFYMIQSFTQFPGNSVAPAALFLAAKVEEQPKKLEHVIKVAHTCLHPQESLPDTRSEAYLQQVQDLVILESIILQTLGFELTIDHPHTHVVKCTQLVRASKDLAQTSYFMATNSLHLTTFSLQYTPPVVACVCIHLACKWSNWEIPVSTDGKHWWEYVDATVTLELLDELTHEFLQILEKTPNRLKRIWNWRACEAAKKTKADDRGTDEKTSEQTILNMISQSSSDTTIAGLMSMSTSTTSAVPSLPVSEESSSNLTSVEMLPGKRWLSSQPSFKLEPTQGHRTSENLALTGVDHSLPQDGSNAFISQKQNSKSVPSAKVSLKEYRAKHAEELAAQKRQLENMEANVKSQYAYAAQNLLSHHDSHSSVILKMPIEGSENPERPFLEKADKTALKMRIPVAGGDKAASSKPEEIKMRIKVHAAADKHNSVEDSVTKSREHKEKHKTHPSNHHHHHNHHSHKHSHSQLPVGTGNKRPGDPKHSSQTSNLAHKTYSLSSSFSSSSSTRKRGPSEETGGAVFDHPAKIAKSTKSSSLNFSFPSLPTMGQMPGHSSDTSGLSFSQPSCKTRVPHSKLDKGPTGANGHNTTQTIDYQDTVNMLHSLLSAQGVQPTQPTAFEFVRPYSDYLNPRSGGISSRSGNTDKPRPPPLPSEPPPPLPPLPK

CDK9 protein levels (CDK9 [8]) | Compound | sensitivity of Thal-R cells relative to parental cells (OVCAR8 Thal-R cells) | cell viability / growth of MZ1-R cells compared with parental cells [2] | phosphorylation of P70S6K (T359) ([3]; 1 μM) | cell viability of ARV-R cells compared with parental cells (OVCAR8 ARV-R cells) | apoptosis (OVCAR8 MZ1-R cells [5]) | BET protein levels [6] | BRD2, BRD3 or BRD4 RNA levels (BRD2, BRD3 or BRD4 RNA) | sensitivity of MZ1-R cells relative to JQ1-R cells or parental cells (OVCAR8 MZ1-R cells [7]) | BET protein levels [9] | growth inhibition (OVCAR5 JQ1-R cells) | cell viability / growth inhibition (KURAMOCHI cells) | spheroid growth in 3D assays (DLD-1 cells [11]) | other results
downregulation of CDK9 | CO[C@H]1C[C@@H]2CC[C@@H](C)[C@@](O)(O2)C(=O)C(=O)N2CCCC[C@H]2C(=O)O[C@H]([C@H](C)C[C@@H]2CC[C@@H](OCCO)[C@H](OC)C2)CC(=O)[C@H](C)/C=C(\C)[C@@H](O)[C@@H](OC)C(=O)[C@H](C)C[C@H](C)/C=C/C=C/C=C/1C [RAD001] | more sensitive | significantly blocked cell growth to a greater extent than parental cells | reduced MTOR-mediated phosphorylation of P70S6K (T359) | reduced cell viability more than in parental cells |  | reduced BRD2 and BRD4 levels | unaffected | more sensitive | reduced BRD2 and BRD4 proteins | minimal growth inhibition | less effective | ineffective | BET protein levels [10]: reduced BRD2 and BRD4 levels; phosphorylated RNA pol II (S2) ([3]; OVCAR8 MZ1-R cells, 48 hour RAD001 treatment, with or without bortezomib): inhibition of phosphorylated RNA pol II (S2)
failed to degrade CDK9 | CC(C)(C)c1cnc(CSc2cnc(NC(=O)C3CCN(CC(=O)NCCOCCOCCOCCNc4cccc5c4C(=O)N(C4CCC(=O)NC4=O)C5=O)CC3)s2)o1 (stereo not drawn) [Thal SNS 032] |  |  |  |  |  |  |  |  |  |  |  |  | CDK9 protein levels (CDK9 [12]): reduction of CDK9 protein levels
 | Cc1sc2c(c1C)C(c1ccc(Cl)cc1)=N[C@@H](CC(=O)NCCCCCCCCNC(=O)COc1cccc3c1C(=O)N(C1CCC(=O)NC1=O)C3=O)c1nnc(C)n1-2 (stereo partly drawn) [dBET6] |  |  |  | cross resistance | promoted apoptosis |  |  |  |  |  | less effective | ineffective | GI50 (DLD-1 cells [13]): > 1000 nM; cell viability of MZ1-R cells compared with parental cells (OVCAR8 MZ1-R cells [7]; OVCAR8 MZ1-R): inhibited cell viability

Compound | CDK9 protein levels (CDK9 [8]) | sensitivity of Thal-R cells relative to parental cells (OVCAR8 Thal-R cells) | cell viability / growth of MZ1-R cells compared with parental cells [2] | phosphorylation of P70S6K (T359) ([3]; 1 μM) | cell viability of ARV-R cells compared with parental cells (OVCAR8 ARV-R cells) | apoptosis (OVCAR8 MZ1-R cells [5]) | BET protein levels [6] | BRD2, BRD3 or BRD4 RNA levels (BRD2, BRD3 or BRD4 RNA) | sensitivity of MZ1-R cells relative to JQ1-R cells or parental cells (OVCAR8 MZ1-R cells [7]) | BET protein levels [9] | growth inhibition (OVCAR5 JQ1-R cells) | cell viability / growth inhibition (KURAMOCHI cells) | spheroid growth in 3D assays (DLD-1 cells [11]) | other results
CCc1cc(Nc2nccc(-c3c(-c4ccc(OC)c(C(=O)Nc5c(F)cccc5F)c4)nc4ccccn34)n2)c(OC)cc1N1CCC(N2CCN(S(C)(=O)=O)CC2)CC1 [GSK1904529A] | downregulation of CDK9 | more sensitive | significantly blocked cell growth to a greater extent than parental cells | reduced MTOR-mediated phosphorylation of P70S6K (T359) | reduced cell viability more than in parental cells | induction of apoptosis | significantly reduced | unaffected | more sensitive | reduced BRD2 and BRD4 proteins | minimal growth inhibition |  |  | BET protein levels [1]: did not reduce BET protein levels; BET protein levels (BET proteins, FOSL1, MYC): did not reduce BET protein levels; kinase MIB-binding ([3]; OVCAR8 MZ1-R cells, 1 μM, 48 hours, MIB-MS): reduced MIB-binding of drug targets INSR and IGF1R; kinase activity by phospho-blot ([3]; OVCAR8 MZ1-R cells, escalating doses, 48 hours): Inhibition of INSR/IGF1R, MTOR, P70S6K, BRAF and ERK activity; colony formation [4]: inhibited colony formation to a greater extent than parental cells; MYC protein levels ([6]; escalating doses, 48 hours): dose dependent reduction in MYC protein levels
